According to patent publication US6638973B2, “Taxane formulations” (FSU Research Foundation, Inc., priority 2000, dated 2003):
pIC50: −log10 of the molar value.

These compounds were tested on HCT116 cells (assay: In vitro cytotoxicity measured by the cell colony formation assay). Details: HCT116 cells, 72 h incubation with drug, colonies counted after 7 days; ID50 = drug concentration producing 50% inhibition of colony formation; read-out: IN VITRO ID 50 (nm) HCT116.
Type: cell-based
Method in brief: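 Colony-forming survival was scored 7 days after a 72 h, 37 °C compound exposure followed by washout into fresh medium.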

`COC(=O)O[C@H]1C[C@H]2OC[C@@]2(OC(C)=O)C2[C@H](OC(=O)c3ccccc3)[C@]3(O)C[C@H](OC(=O)[C@H](O)[C@@H](NC(=O)c4ccccc4)c4cccs4)C(C)=C([C@@H](O)C(=O)[C@@]21C)C3(C)C` (stereo partly shown) [Compound 4411] and `COC(=O)O[C@H]1C[C@H]2OC[C@@]2(OC(C)=O)C2[C@H](OC(=O)c3ccccc3)[C@]3(O)C[C@H](OC(=O)[C@H](O)[C@@H](NC(=O)c4cccs4)c4cccs4)C(C)=C([C@@H](O)C(=O)[C@@]21C)C3(C)C` (stereo partly shown) [Compound 4424] cannot be ordered by pIC50: over 9.00 for the first, over 9.00 for the second.

`COC(=O)O[C@H]1C[C@H]2OC[C@@]2(OC(C)=O)C2[C@H](OC(=O)c3ccccc3)[C@]3(O)C[C@H](OC(=O)[C@H](O)[C@@H](NC(=O)OC(C)(C)C)c4ccoc4)C(C)=C([C@@H](O)C(=O)[C@@]21C)C3(C)C` (stereo partly shown) [Compound 4434] and `CCOC(=O)O[C@H]1C[C@H]2OC[C@@]2(OC(C)=O)C2[C@H](OC(=O)c3ccccc3)[C@]3(O)C[C@H](OC(=O)[C@H](O)[C@@H](NC(=O)OC(C)(C)C)c4ccoc4)C(C)=C([C@@H](O)C(=O)[C@@]21C)C3(C)C` (stereo partly shown) [Compound 4464] cannot be ordered by pIC50: over 9.00 for the first, over 9.00 for the second.

`COC(=O)O[C@H]1C[C@H]2OC[C@@]2(OC(C)=O)C2[C@H](OC(=O)c3ccccc3)[C@]3(O)C[C@H](OC(=O)[C@H](O)[C@@H](NC(=O)OC(C)(C)C)c4ccsc4)C(C)=C([C@@H](O)C(=O)[C@@]21C)C3(C)C` (stereo partly shown) [Compound 4444] and `CCOC(=O)O[C@H]1C[C@H]2OC[C@@]2(OC(C)=O)C2[C@H](OC(=O)c3ccccc3)[C@]3(O)C[C@H](OC(=O)[C@H](O)[C@@H](NC(=O)OC(C)(C)C)c4ccsc4)C(C)=C([C@@H](O)C(=O)[C@@]21C)C3(C)C` (stereo partly shown) [Compound 4500] cannot be ordered by pIC50: over 9.00 for the first, over 9.00 for the second.

`CCOC(=O)O[C@H]1C[C@H]2OC[C@@]2(OC(C)=O)C2[C@H](OC(=O)c3ccccc3)[C@]3(O)C[C@H](OC(=O)[C@H](O)[C@@H](NC(=O)c4cccs4)c4cccs4)C(C)=C([C@@H](O)C(=O)[C@@]21C)C3(C)C` (stereo partly shown) [Compound 4455] and `CCOC(=O)O[C@H]1C[C@H]2OC[C@@]2(OC(C)=O)C2[C@H](OC(=O)c3ccccc3)[C@]3(O)C[C@H](OC(=O)[C@H](O)[C@@H](NC(=O)OCC(C)C)c4ccco4)C(C)=C([C@@H](O)C(=O)[C@@]21C)C3(C)C` (stereo partly shown) [Compound 4696] cannot be ordered by pIC50: over 9.00 for the first, over 9.00 for the second.

`COC(=O)O[C@H]1C[C@H]2OC[C@@]2(OC(C)=O)C2[C@H](OC(=O)c3ccccc3)[C@]3(O)C[C@H](OC(=O)[C@H](O)[C@@H](NC(=O)OC(C)(C)C)c4ccsc4)C(C)=C([C@@H](O)C(=O)[C@@]21C)C3(C)C` (stereo partly shown) [Compound 4474] and `COC(=O)O[C@H]1C[C@H]2OC[C@@]2(OC(C)=O)C2[C@H](OC(=O)c3ccccc3)[C@]3(O)C[C@H](OC(=O)[C@H](O)[C@@H](NC(=O)OCC(C)C)c4ccsc4)C(C)=C([C@@H](O)C(=O)[C@@]21C)C3(C)C` (stereo partly shown) [Compound 4674] cannot be ordered by pIC50: over 9.00 for the first, over 9.00 for the second.

`COC(=O)O[C@H]1C[C@H]2OC[C@@]2(OC(C)=O)C2[C@H](OC(=O)c3ccccc3)[C@]3(O)C[C@H](OC(=O)[C@H](O)[C@H](C=C(C)C)NC(=O)OC(C)(C)C)C(C)=C([C@@H](O)C(=O)[C@@]21C)C3(C)C` (stereo partly shown) [Compound 4484] and `CCOC(=O)O[C@H]1C[C@H]2OC[C@@]2(OC(C)=O)C2[C@H](OC(=O)c3ccccc3)[C@]3(O)C[C@H](OC(=O)[C@H](O)[C@H](C=C(C)C)NC(=O)OC(C)(C)C)C(C)=C([C@@H](O)C(=O)[C@@]21C)C3(C)C` (stereo partly shown) [Compound 4524] cannot be ordered by pIC50: over 9.00 for the first, over 9.00 for the second.

`CC(=O)O[C@H]1C[C@H]2OC[C@@]2(OC(C)=O)C2[C@H](OC(=O)c3ccccc3)[C@]3(O)C[C@H](OC(=O)[C@H](O)[C@@H](NC(=O)OCC(C)C)c4ccsc4)C(C)=C([C@@H](O)C(=O)[C@@]21C)C3(C)C` (stereo partly shown) [Compound 4515] and `COC(=O)O[C@H]1C[C@H]2OC[C@@]2(OC(C)=O)C2[C@H](OC(=O)c3ccccc3)[C@]3(O)C[C@H](OC(=O)[C@H](O)[C@@H](NC(=O)OCC(C)C)c4ccoc4)C(C)=C([C@@H](O)C(=O)[C@@]21C)C3(C)C` (stereo partly shown) [Compound 4584] cannot be ordered by pIC50: over 8.00 for the first, over 8.00 for the second.

`COC(=O)O[C@H]1C[C@H]2OC[C@@]2(OC(C)=O)C2[C@H](OC(=O)c3ccccc3)[C@]3(O)C[C@H](OC(=O)[C@H](O)[C@@H](NC(=O)OC(C)(C)C)c4ccco4)C(C)=C([C@@H](O)C(=O)[C@@]21C)C3(C)C` (stereo partly shown) [Compound 4533] and `COC(=O)O[C@H]1C[C@H]2OC[C@@]2(OC(C)=O)C2[C@H](OC(=O)c3ccccc3)[C@]3(O)C[C@H](OC(=O)[C@H](O)[C@@H](NC(=O)OCC(C)C)c4ccco4)C(C)=C([C@@H](O)C(=O)[C@@]21C)C3(C)C` (stereo partly shown) [Compound 4656] cannot be ordered by pIC50: over 9.00 for the first, over 9.00 for the second.

`CC(=O)O[C@H]1C[C@H]2OC[C@@]2(OC(C)=O)C2[C@H](OC(=O)c3ccccc3)[C@]3(O)C[C@H](OC(=O)[C@H](O)[C@@H](NC(=O)OC(C)(C)C)C4CC4)C(C)=C([C@@H](O)C(=O)[C@@]21C)C3(C)C` (stereo partly shown) [Compound 4555] and `COC(=O)O[C@H]1C[C@H]2OC[C@@]2(OC(C)=O)C2[C@H](OC(=O)c3ccccc3)[C@]3(O)C[C@H](OC(=O)[C@H](O)[C@@H](NC(=O)OC(C)(C)C)C4CC4)C(C)=C([C@@H](O)C(=O)[C@@]21C)C3(C)C` (stereo partly shown) [Compound 4566] cannot be ordered by pIC50: over 9.00 for the first, over 9.00 for the second.

`COC(=O)O[C@H]1C[C@H]2OC[C@@]2(OC(C)=O)C2[C@H](OC(=O)c3ccccc3)[C@]3(O)C[C@H](OC(=O)[C@H](O)[C@@H](NC(=O)OC(C)(C)C)c4ccco4)C(C)=C([C@@H](O)C(=O)[C@@]21C)C3(C)C` (stereo partly shown) [Compound 4575] and `CCOC(=O)O[C@H]1C[C@H]2OC[C@@]2(OC(C)=O)C2[C@H](OC(=O)c3ccccc3)[C@]3(O)C[C@H](OC(=O)[C@H](O)[C@@H](NC(=O)OCC(C)C)c4ccoc4)C(C)=C([C@@H](O)C(=O)[C@@]21C)C3(C)C` (stereo partly shown) [Compound 4624] cannot be ordered by pIC50: over 9.00 for the first, over 8.00 for the second.

`CCOC(=O)O[C@H]1C(=O)[C@@]2(C)C([C@H](OC(=O)c3ccccc3)[C@]3(O)C[C@H](OC(=O)[C@H](O)[C@@H](NC(=O)OCC(C)C)c4ccoc4)C(C)=C1C3(C)C)[C@]1(OC(C)=O)CO[C@@H]1C[C@@H]2O` (stereo partly shown) [Compound 4636] and `CCOC(=O)O[C@H]1C[C@H]2OC[C@@]2(OC(C)=O)C2[C@H](OC(=O)c3ccccc3)[C@]3(O)C[C@H](OC(=O)[C@H](O)[C@H](C=C(C)C)NC(=O)OCC(C)C)C(C)=C([C@@H](O)C(=O)[C@@]21C)C3(C)C` (stereo partly shown) [Compound 4688] cannot be ordered by pIC50: over 8.00 for the first, over 8.00 for the second.

For `COC(=O)O[C@H]1C[C@H]2OC[C@@]2(OC(C)=O)C2[C@H](OC(=O)c3ccccc3)[C@]3(O)C[C@H](OC(=O)[C@H](O)[C@H](C=C(C)C)NC(=O)OCC(C)C)C(C)=C([C@@H](O)C(=O)[C@@]21C)C3(C)C` (stereo partly shown) [Compound 4644], the pIC50 was over 8.00.

Same assay, conditions: HCT116 colony formation; 72 h drug incubation, colonies counted after 7 days; Example 5, C-7 ester/C-10 hydroxy taxanes; read-out: IN VITRO ID 50 (nm) HCT116

`CCCC(=O)O[C@H]1C[C@H]2OC[C@@]2(OC(C)=O)C2[C@H](OC(=O)c3ccccc3)[C@]3(O)C[C@H](OC(=O)[C@H](O)[C@H](C=C(C)C)NC(=O)OC(C)(C)C)C(C)=C([C@@H](O)C(=O)[C@@]21C)C3(C)C` (stereo partly shown) [Compound 4406] and `CCCC(=O)O[C@H]1C[C@H]2OC[C@@]2(OC(C)=O)C2[C@H](OC(=O)c3ccccc3)[C@]3(O)C[C@H](OC(=O)[C@H](O)[C@@H](NC(=O)OC(C)(C)C)c4ccsc4)C(C)=C([C@@H](O)C(=O)[C@@]21C)C3(C)C` (stereo partly shown) [Compound 4446] cannot be ordered by pIC50: over 9.00 for the first, over 9.00 for the second.

`CCCC(=O)O[C@H]1C[C@H]2OC[C@@]2(OC(C)=O)C2[C@H](OC(=O)c3ccccc3)[C@]3(O)C[C@H](OC(=O)[C@H](O)[C@@H](NC(=O)c4ccccc4)c4cccs4)C(C)=C([C@@H](O)C(=O)[C@@]21C)C3(C)C` (stereo partly shown) [Compound 4414] and `CCCC(=O)O[C@H]1C[C@H]2OC[C@@]2(OC(C)=O)C2[C@H](OC(=O)c3ccccc3)[C@]3(O)C[C@H](OC(=O)[C@H](O)[C@@H](NC(=O)c4cccs4)c4cccs4)C(C)=C([C@@H](O)C(=O)[C@@]21C)C3(C)C` (stereo partly shown) [Compound 4454] cannot be ordered by pIC50: over 9.00 for the first, over 9.00 for the second.

`CCCC(=O)O[C@H]1C[C@H]2OC[C@@]2(OC(C)=O)C2[C@H](OC(=O)c3ccccc3)[C@]3(O)C[C@H](OC(=O)[C@H](O)[C@@H](NC(=O)OC(C)(C)C)c4ccco4)C(C)=C([C@@H](O)C(=O)[C@@]21C)C3(C)C` (stereo partly shown) [Compound 4499] and `CCCC(=O)O[C@H]1C[C@H]2OC[C@@]2(OC(C)=O)C2[C@H](OC(=O)c3ccccc3)[C@]3(O)C[C@H](OC(=O)[C@H](O)[C@@H](NC(=O)OCC(C)C)c4ccco4)C(C)=C([C@@H](O)C(=O)[C@@]21C)C3(C)C` (stereo partly shown) [Compound 4616] cannot be ordered by pIC50: over 9.00 for the first, over 9.00 for the second.

`CCC(=O)O[C@H]1C[C@H]2OC[C@@]2(OC(C)=O)C2[C@H](OC(=O)c3ccccc3)[C@]3(O)C[C@H](OC(=O)[C@H](O)[C@@H](NC(=O)OCC(C)C)c4ccsc4)C(C)=C([C@@H](O)C(=O)[C@@]21C)C3(C)C` (stereo partly shown) [Compound 4544] and `CCCC(=O)O[C@H]1C[C@H]2OC[C@@]2(OC(C)=O)C2[C@H](OC(=O)c3ccccc3)[C@]3(O)C[C@H](OC(=O)[C@H](O)[C@@H](NC(=O)OCC(C)C)c4ccsc4)C(C)=C([C@@H](O)C(=O)[C@@]21C)C3(C)C` (stereo partly shown) [Compound 4600] cannot be ordered by pIC50: over 8.00 for the first, over 8.00 for the second.

Same assay, conditions: HCT116 colony formation; 72 h drug incubation, colonies counted after 7 days; Example 10, C-10 ester/C-7 hydroxy taxanes; read-out: IN VITRO ID 50 (nm) HCT116

`CC(=O)O[C@@]12CO[C@@H]1C[C@H](O)[C@@]1(C)C(=O)[C@H](OC(=O)C3CC3)C3=C(C)[C@@H](OC(=O)[C@H](O)[C@@H](NC(=O)OCC(C)C)c4ccoc4)C[C@@](O)([C@@H](OC(=O)c4ccccc4)C12)C3(C)C` (stereo partly shown) [Compound 4665] and `CCCC(=O)O[C@H]1C(=O)[C@@]2(C)C([C@H](OC(=O)c3ccccc3)[C@]3(O)C[C@H](OC(=O)[C@H](O)[C@@H](NC(=O)OCC(C)C)c4ccoc4)C(C)=C1C3(C)C)[C@]1(OC(C)=O)CO[C@@H]1C[C@@H]2O` (stereo partly shown) [Compound 4704] cannot be ordered by pIC50: over 8.00 for the first, over 8.00 for the second.

`CCC(=O)O[C@H]1C(=O)[C@@]2(C)C([C@H](OC(=O)c3ccccc3)[C@]3(O)C[C@H](OC(=O)[C@H](O)[C@@H](NC(=O)OCC(C)C)c4ccsc4)C(C)=C1C3(C)C)[C@]1(OC(C)=O)CO[C@@H]1C[C@@H]2O` (stereo partly shown) [Compound 4711] was tested, and the pIC50 was over 8.00.
